# Laboratory results published in patent US10898469B2, “Imidazolylamide derivative” (Sumitomo Dainippon Pharma Co., Ltd., priority 2016, dated 2021).
# Read-outs that look alike come from different tables or passages of the source.
# What was measured:
# Assay type in all cases: cell-based, human
# [1] = test system: FaDu cells; test: Inhibition test for sphere-forming ability of cancer cells (Test Example 1), FaDu; conditions: concentration for 50% inhibition of cell proliferation, read-out: IC50 (μmol/L) FaDu (Sphere IC50 value)
# Text: (§1) The reliable methods established for measuring the self-renewal ability of cells which is one of the CSC's properties include a method for measuring the sphere-forming ability of cancer cells in non-adherent condition in the absence of serum (Cancer Res 65, 5506-5511 (2005)). Human colorectal cancer-derived HCT-116 cells, human colon-adenocarcinoma-derived HT-29 cells, and human pharyngeal cancer-derived FaDu cells were available from American Type Culture Collection (ATCC). HCT-116 cells and HT-29 cells were cultured at 37° C. under 5% CO2 using the McCoy's 5a medium containing 10% fetal bovine serum (FBS) and 1% penicillin/streptomycin, and FaDu cells were cultured at 37° C. under 5% CO2 using the MEM medium containing 10% FBS, 1% non-essential amino acid, 1% sodium pyruvate, and 1% penicillin/streptomycin. HCT-116 cells, HT-29 cells, and FaDu cells were seeded in a 384 Well Black Clear Bottom Ultra-Low Attachment Microplate (Corning Cat. No. 3827) in an amount of 350-800 cells/well using the DMEM/F12 medium containing 2% B27 supplement (GIBCO), 20 ng/mL epidermal growth factor (EGF) (peprotech), 10 ng/mL basic fibroblast growth factor (bFGF) (peprotech), 5 μg/mL insulin (Sigma), and 1% penicillin/streptomycin. Each test compound was added into each well to adjust the final concentration of DMSO to 0.1%, and the cells were cultured for 4 days. The number of viable cells in each well was then measured with CellTiter-Glo® Luminescent Cell Viability Assay (Promega) to calculate the concentration of each test compound for 50% inhibition of cell proliferation (Sphere IC50 value; μmol/L).
# (§2) The experiment of Test Example 1 was performed for each compound of each Example. The concentration of each test compound for 50% inhibition of cell proliferation (Sphere IC50 value; μmol/L) is shown in the following Table.
# [2] = test system: HT-29 cells; test: Inhibition test for sphere-forming ability of cancer cells (Test Example 1), HT-29; conditions: concentration for 50% inhibition of cell proliferation, read-out: IC50 (μmol/L) HT-29 (Sphere IC50 value)
# Text: as §1, §2
# [3] = test system: HCT-116 cells; test: Inhibition test for sphere-forming ability of cancer cells (Test Example 1), HCT-116; conditions: for IC50: HCT-116 cells, concentration for 50% inhibition of cell proliferation, read-out: IC50 (μmol/L) HCT-116 (Sphere IC50 value); for inhibitory effect on the sphere-forming ability of cancer cells: Test Example 1, summary in words, cell line not given (HCT-116, HT-29, FaDu tested)
# Text: as §1, §2
SMILES,IC50 ([1]; Homo sapiens),IC50 ([2]; Homo sapiens),IC50 ([3]; Homo sapiens),IC50 [1],IC50 [2],IC50 [3],inhibitory effect on the sphere-forming ability of cancer cells [3]
"O=C(/C=C/c1ccc(O)c(O)c1)Nc1cn(Cc2cccc(Cl)c2)cn1 [Example 21, (E)-N-(1-(3-Chlorobenzyl)-1H-imidazol-4-yl)-3-(3,4-dihydroxyphenyl)acrylamide]",0.66 µmol/L,6.65 µmol/L,7.05 µmol/L,–,–,–,–
COc1cc(/C=C/C(=O)Nc2cn(Cc3cccc(Cl)c3)cn2)ccc1O [Example 24],5.97 µmol/L,> 10 µmol/L,7.42 µmol/L,–,–,–,–
"COC(=O)c1ccc(/C=C/C(=O)Nc2cn(Cc3cccc(Cl)c3)cn2)cn1 [Example 25, Methyl (E)-5-(3-((1-(3-chlorobenzyl)-1H-imidazol-4-yl)amino)-3-oxoprop-1-en-1-yl)picolinate]",0.89 µmol/L,2.61 µmol/L,> 10 µmol/L,–,–,–,–
"CCNC(=O)c1ccc(/C=C/C(=O)Nc2cn(Cc3cccc(Cl)c3)cn2)cn1 [Example 26, (E)-5-(3-((1-(3-Chlorobenzyl)-1H-imidazol-4-yl)amino)-3-oxoprop-1-en-1-yl)-N-ethylpicolinamide]",5.49 µmol/L,5.83 µmol/L,> 10 µmol/L,–,–,–,–
CCCCNC(=O)c1ccc(/C=C/C(=O)Nc2cn(Cc3cccc(Cl)c3)cn2)cn1 [Example 27],5.84 µmol/L,3.38 µmol/L,> 10 µmol/L,–,–,–,–
O=C(/C=C/c1ccc(C(=O)N2CCCC2)nc1)Nc1cn(Cc2cccc(Cl)c2)cn1 [Example 28],0.8 µmol/L,0.91 µmol/L,7.89 µmol/L,–,–,–,–
"COCCOc1cc(/C=C/C(=O)Nc2cn(Cc3cccc(Cl)c3)cn2)ccc1OC [Example 29, (E)-N-(1-(3-Chlorobenzyl)-1H-imidazol-4-yl)-3-(4-methoxy-3-(2-methoxyethoxy)phenyl)acrylamide]",0.76 µmol/L,0.89 µmol/L,5.87 µmol/L,–,–,–,–
COc1ccc(/C=C/C(=O)Nc2cn(Cc3cccc(Cl)c3)cn2)cc1OCC(N)=O [Example 30],0.71 µmol/L,> 10 µmol/L,> 10 µmol/L,–,–,–,–
"O=C(/C=C/c1cncc(F)c1)Nc1cn(Cc2cccc(Cl)c2)cn1 [Example 42, (E)-N-(1-(3-Chlorobenzyl)-1H-imidazol-4-yl)-3-(5-fluoropyridin-3-yl)acrylamide]",5.77 µmol/L,0.7 µmol/L,0.96 µmol/L,–,–,–,–
"O=C(Nc1cn(Cc2cccc(Cl)c2)cn1)/C(F)=C/c1cccnc1 [Example 43, (Z)—N-(1-(3-Chlorobenzyl)-1H-imidazol-4-yl)-2-fluoro-3-(pyridin-3-yl)acrylamide]",0.69 µmol/L,0.49 µmol/L,0.85 µmol/L,–,–,–,–
O=C(/C=C/c1ccc(C(F)(F)F)nc1)Nc1cn(Cc2cccc(Cl)c2)cn1 [Example 44],0.07 µmol/L,0.05 µmol/L,0.1 µmol/L,–,–,–,–
O=C(/C=C/c1cncc(Br)c1)Nc1cn(Cc2cccc(Cl)c2)cn1 [Example 45],0.81 µmol/L,0.88 µmol/L,6.38 µmol/L,–,–,–,–
"O=C(/C=C/c1ccc2[nH]ccc2c1)Nc1cn(Cc2cccc(Cl)c2)cn1 [Example 47, (E)-N-(1-(3-Chlorobenzyl)-1H-imidazol-4-yl)-3-(1H-indol-5-yl)acrylamide]",0.76 µmol/L,0.7 µmol/L,0.89 µmol/L,–,–,–,–
"O=C(/C=C/c1ccc(C(F)(F)F)cc1)Nc1cn(Cc2cccc(Cl)c2)cn1 [Example 48, (E)-N-(1-(3-Chlorobenzyl)-1H-imidazol-4-yl)-3-(4-(trifluoromethyl)phenyl)acrylamide]",0.09 µmol/L,0.08 µmol/L,0.76 µmol/L,–,–,–,–
Cc1ccc(/C=C/C(=O)Nc2cn(Cc3cccc(Cl)c3)cn2)cc1 [Example 49],–,–,–,0.08 µmol/L,0.06 µmol/L,0.1 µmol/L,particularly potent inhibitory effect
O=C(/C=C/c1ccccc1F)Nc1cn(Cc2cccc(Cl)c2)cn1 [Example 50],–,–,–,6.7 µmol/L,0.89 µmol/L,2.48 µmol/L,–
O=C(/C=C/c1ccccc1Cl)Nc1cn(Cc2cccc(Cl)c2)cn1 [Example 51],–,–,–,6.13 µmol/L,3.75 µmol/L,7.2 µmol/L,–
COc1ccc(OC)c(/C=C/C(=O)Nc2cn(Cc3cccc(Cl)c3)cn2)c1 [Example 53],–,–,–,0.87 µmol/L,0.84 µmol/L,0.87 µmol/L,–

SMILES,IC50 ([1]; Homo sapiens),IC50 ([2]; Homo sapiens),IC50 ([3]; Homo sapiens),IC50 [1],IC50 [2],IC50 [3],inhibitory effect on the sphere-forming ability of cancer cells [3]
O=C(/C=C/c1ccccc1O)Nc1cn(Cc2cccc(Cl)c2)cn1 [Example 54],–,–,–,0.82 µmol/L,8.11 µmol/L,8.38 µmol/L,–
O=C(/C=C/c1ccccc1C(F)(F)F)Nc1cn(Cc2cccc(Cl)c2)cn1 [Example 55],–,–,–,3.77 µmol/L,1.2 µmol/L,0.96 µmol/L,–
O=C(/C=C/c1cccc(Br)c1)Nc1cn(Cc2cccc(Cl)c2)cn1 [Example 56],–,–,–,4.5 µmol/L,6.62 µmol/L,5.74 µmol/L,–
O=C(/C=C/c1cccc(F)c1)Nc1cn(Cc2cccc(Cl)c2)cn1 [Example 57],–,–,–,4.36 µmol/L,3.3 µmol/L,0.94 µmol/L,–
O=C(/C=C/c1cccc(Cl)c1)Nc1cn(Cc2cccc(Cl)c2)cn1 [Example 58],–,–,–,6.52 µmol/L,4.89 µmol/L,6.99 µmol/L,–
O=C(/C=C/c1ccc(Cl)c(Cl)c1)Nc1cn(Cc2cccc(Cl)c2)cn1 [Example 59],–,–,–,0.86 µmol/L,0.79 µmol/L,7.78 µmol/L,–
O=C(/C=C/c1cccc(C(F)(F)F)c1)Nc1cn(Cc2cccc(Cl)c2)cn1 [Example 60],–,–,–,8.2 µmol/L,9.79 µmol/L,> 10 µmol/L,–
O=C(/C=C/c1ccc(Br)cc1)Nc1cn(Cc2cccc(Cl)c2)cn1 [Example 61],–,–,–,0.07 µmol/L,0.02 µmol/L,0.09 µmol/L,particularly potent inhibitory effect
O=C(/C=C/c1ccc(F)cc1)Nc1cn(Cc2cccc(Cl)c2)cn1 [Example 62],–,–,–,0.56 µmol/L,0.09 µmol/L,0.74 µmol/L,–
CN(C)c1ccc(/C=C/C(=O)Nc2cn(Cc3cccc(Cl)c3)cn2)cc1 [Example 63],–,–,–,0.08 µmol/L,0.07 µmol/L,0.53 µmol/L,–
CCOc1cccc(/C=C/C(=O)Nc2cn(Cc3cccc(Cl)c3)cn2)c1 [Example 64],–,–,–,0.59 µmol/L,0.69 µmol/L,9.79 µmol/L,–
O=C(/C=C/c1cccc(O)c1)Nc1cn(Cc2cccc(Cl)c2)cn1 [Example 65],–,–,–,0.06 µmol/L,2.66 µmol/L,0.95 µmol/L,particularly potent inhibitory effect
COc1ccc(/C=C/C(=O)Nc2cn(Cc3cccc(Cl)c3)cn2)cc1OC [Example 66],–,–,–,0.06 µmol/L,0.07 µmol/L,0.09 µmol/L,particularly potent inhibitory effect
COc1cc(/C=C/C(=O)Nc2cn(Cc3cccc(Cl)c3)cn2)cc(OC)c1O [Example 67],–,–,–,0.79 µmol/L,8.37 µmol/L,7.34 µmol/L,–
O=C(/C=C/c1ccc([N+](=O)[O-])cc1)Nc1cn(Cc2cccc(Cl)c2)cn1 [Example 68],–,–,–,0.01 µmol/L,< 0.01 µmol/L,0.07 µmol/L,particularly potent inhibitory effect
O=C(/C=C/c1ccc(F)cc1F)Nc1cn(Cc2cccc(Cl)c2)cn1 [Example 69],–,–,–,0.54 µmol/L,0.38 µmol/L,0.82 µmol/L,–
O=C(/C=C/c1ccc(-c2ccccc2)cc1)Nc1cn(Cc2cccc(Cl)c2)cn1 [Example 70],–,–,–,0.09 µmol/L,0.08 µmol/L,8.98 µmol/L,–
